These are literature values, as cited in PMC10640708 (ACS chemical biology, 2018).

In this data set the target is calcium sensing receptor (CaSR). The note with it: read-out: EC50 of CaSR activation; Ca2+ alone.

For `[Ca+2]` [Ca^2+], the EC50 is ~4 mM.

For orientation: EC50 means the concentration needed to bring the measured effect to its halfway point.
